“Also recorded” adds a separate entry of the source.
Test system: WT mice with CS-LI
Assay: Chronic CS/TSE lung injury in WT mice treated by nebulization or IP injection
Assay type: in vivo, mouse
Settings: for lung volume (μCT): 20 weeks CS
Protocol: Pulmonary function tests were performed immediately before CT imaging and before mice were killed, as previously described (DeCologne N et al., Eur Respir J. 35:176-85, 2010). Briefly, mice were anesthetized with a ketamine/xylazine mixture. Anesthetized mice were intubated by inserting a sterile, 20-gauge intravenous cannula through the vocal cords into the trachea. Elastance, compliance, and total lung resistance were then measured (SCIREQ, Tempe, AZ). The “snapshot perturbation method” was used to study lung function in the CBB injury model. This method measures total lung resistance, compliance, and elastance of the entire respiratory system. Increased total lung resistance in the CBB model may reflect lung contraction associated with pleural rind formation with concurrent distortion of the airways. The flexiVent was set to a tidal volume of […] at a frequency of 150 breaths/min against 2-3 cm H2O positive end-expiratory pressure, according to manufacturer's specifications. The mice were maintained under anesthesia using isofluorane throughout the pulmonary function testing.
After ketamine/xylazine injection, mice were anesthetized further using an isoflurane/02 mixture to ensure that mice remained deeply anesthetized and to minimize spontaneous breaths. The Explore Locus Micro-CT Scanner (General Electric, GE Healthcare, Wauwatosa, WI) was used for CT imaging. CT scans were performed during full inspiration and at a resolution of […]. Lung volumes were calculated from lung renditions collected at full inspiration. Microview software was used to analyze lung volumes and render three-dimensional images (Tucker T A et al., Am J Respir Cell Mol Biol. 50:316-27, 2014).
Wild type (WT) mice of the C57BL/6J strain (n=10/group) were kept in ambient air or were TSE for 4 hour/day, 5 days a week as described. […]
Micro-computed Tomography (pCT) scanning and measurements of lung volume and pulmonary function. […] Lung volumes were calculated from lung renditions collected at full inspiration using Microview software. […]

Row | Substance | lung volume (μCT) | lung volume, compliance, elastance and resistance (IP or Neb, 20 weeks TSE/CS)
1 | FTTFTVT (listed as Homo sapiens) [CSP7, heptapeptide fragment of the caveolin-1 scaffolding domain peptide CSP] | significantly improved | reduced lung volume, compliance, elastance and resistance; also recorded: trend of reversal; also recorded: significantly improved
2 | WGIDKAFFTTSTVTYKWFRY [CP, scrambled control peptide with the same amino acid composition as CSP, reference compound] | persistently high lung volumes | 
